The record followed here is PMC11416286 (Heliyon, 2024).

This assay deals with Aβ (1-42) (Homo sapiens, UniProt P05067). Kind of assay: Thioflavin T fluorescence anti-aggregation assay with […] Aβ. In kind it is biochemical.
Sequence of Aβ (1-42) (P05067 672-713): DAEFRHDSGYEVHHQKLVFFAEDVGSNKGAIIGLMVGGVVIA

One may read the IC50 as the concentration that gives 50% inhibition. A lower IC50 goes with inhibition by little substance. Turning to `O=c1oc2c(O)c(O)cc3c(=O)oc4c(O)c(O)cc1c4c23` [EA, Ellagic acid], the IC50 amounted to 8.01 ± 0.5 µM.
